Key:
[1] = biological target: T1, porcine pancreatic lipase (from pancreatin) (Sus scrofa, UniProt P00591); test: In vitro digestion, simulated intestinal fluid (SIF) model, pH-stat; format: in vitro ADME; conditions: SIF alone; 200 mg fat emulsion, pH 6.8, 37° C.
T1 construct: pancreatin (Porcine, USP×8, P7585); purchased Sigma-Aldrich P7585; host or cells: porcine pancreas extract (pancreatin)
T1 sequence (P00591 1-450): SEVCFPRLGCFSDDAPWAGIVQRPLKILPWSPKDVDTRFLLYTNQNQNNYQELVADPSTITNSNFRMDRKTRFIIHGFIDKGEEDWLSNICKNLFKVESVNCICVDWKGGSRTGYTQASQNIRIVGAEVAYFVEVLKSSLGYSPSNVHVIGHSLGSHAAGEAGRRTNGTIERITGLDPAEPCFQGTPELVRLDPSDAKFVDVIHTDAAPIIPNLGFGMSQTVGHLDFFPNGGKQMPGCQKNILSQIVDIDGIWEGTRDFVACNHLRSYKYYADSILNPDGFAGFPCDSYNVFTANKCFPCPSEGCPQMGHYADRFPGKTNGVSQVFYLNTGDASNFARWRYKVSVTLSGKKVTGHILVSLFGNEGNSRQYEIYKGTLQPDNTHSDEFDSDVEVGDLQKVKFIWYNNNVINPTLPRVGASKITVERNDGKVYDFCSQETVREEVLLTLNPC
T1 sequence (P02703 23-112 partner): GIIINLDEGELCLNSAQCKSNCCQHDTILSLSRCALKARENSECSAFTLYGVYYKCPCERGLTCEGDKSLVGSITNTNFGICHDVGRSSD

[2] = system: rabbit gastric lipase (RGL) followed by porcine pancreatic lipase (PPL); test: In vitro sequential digestion SGF followed by SIF, pH-stat; format: in vitro ADME

initial rate of lipolysis [1]: 223 ± 59 µmol/min
initial lipolysis rate in SIF after SGF ([2]; SGF-SIF sequential digestion, 200 mg fat emulsion): 44.1 ± 8.8 µmol/min
extent of hydrolysis in the stomach (gastric lipolysis) ([2]; in words): extensive hydrolysis in the stomach
lipolysis by gastric lipase ([2]; indicated by decreased total fatty acid release in SIF after RGL in SGF): ~60%
Structure (SMILES): CCCC(=O)OCC(COC(=O)CCC)OC(=O)CCC [tributyrin]

Reference: US20210038554A1, “DIETARY BUTYRATE” (SOCIETE DES PRODUITS NESTLE S.A., priority 2018, published 2021)
